Assay results: ChEMBL document CHEMBL2074329, “Characterization of the transport of a cationic octapeptide, octreotide, in rat bile canalicular membrane: possible involvement of P-glycoprotein” (Biol Pharm Bull, 1998)
Bridge positions count the residues as written; N and C are the ends. Square brackets hold non-standard residues; d marks the D form. Peptide text beside a SMILES is read from it. * marks the point of attachment. Threoninol(2S,3R) = C[C@@H](O)[C@H](CO)N*

Biological target: Multidrug resistance protein 1a (Rattus norvegicus) (UniProt Q6PSM0)
Test: TP_TRANSPORTER: uptake, inhibited by Verapamil, Vincristine and PSC833 in bile canalicular membrane vesicles from SD rat
Type: functional, cell membranes
Conditions: Sprague-Dawley, Bile canalicular membrane vesicle

Chain of Multidrug resistance protein 1a (Rattus norvegicus) (Q6PSM0 as listed by the source): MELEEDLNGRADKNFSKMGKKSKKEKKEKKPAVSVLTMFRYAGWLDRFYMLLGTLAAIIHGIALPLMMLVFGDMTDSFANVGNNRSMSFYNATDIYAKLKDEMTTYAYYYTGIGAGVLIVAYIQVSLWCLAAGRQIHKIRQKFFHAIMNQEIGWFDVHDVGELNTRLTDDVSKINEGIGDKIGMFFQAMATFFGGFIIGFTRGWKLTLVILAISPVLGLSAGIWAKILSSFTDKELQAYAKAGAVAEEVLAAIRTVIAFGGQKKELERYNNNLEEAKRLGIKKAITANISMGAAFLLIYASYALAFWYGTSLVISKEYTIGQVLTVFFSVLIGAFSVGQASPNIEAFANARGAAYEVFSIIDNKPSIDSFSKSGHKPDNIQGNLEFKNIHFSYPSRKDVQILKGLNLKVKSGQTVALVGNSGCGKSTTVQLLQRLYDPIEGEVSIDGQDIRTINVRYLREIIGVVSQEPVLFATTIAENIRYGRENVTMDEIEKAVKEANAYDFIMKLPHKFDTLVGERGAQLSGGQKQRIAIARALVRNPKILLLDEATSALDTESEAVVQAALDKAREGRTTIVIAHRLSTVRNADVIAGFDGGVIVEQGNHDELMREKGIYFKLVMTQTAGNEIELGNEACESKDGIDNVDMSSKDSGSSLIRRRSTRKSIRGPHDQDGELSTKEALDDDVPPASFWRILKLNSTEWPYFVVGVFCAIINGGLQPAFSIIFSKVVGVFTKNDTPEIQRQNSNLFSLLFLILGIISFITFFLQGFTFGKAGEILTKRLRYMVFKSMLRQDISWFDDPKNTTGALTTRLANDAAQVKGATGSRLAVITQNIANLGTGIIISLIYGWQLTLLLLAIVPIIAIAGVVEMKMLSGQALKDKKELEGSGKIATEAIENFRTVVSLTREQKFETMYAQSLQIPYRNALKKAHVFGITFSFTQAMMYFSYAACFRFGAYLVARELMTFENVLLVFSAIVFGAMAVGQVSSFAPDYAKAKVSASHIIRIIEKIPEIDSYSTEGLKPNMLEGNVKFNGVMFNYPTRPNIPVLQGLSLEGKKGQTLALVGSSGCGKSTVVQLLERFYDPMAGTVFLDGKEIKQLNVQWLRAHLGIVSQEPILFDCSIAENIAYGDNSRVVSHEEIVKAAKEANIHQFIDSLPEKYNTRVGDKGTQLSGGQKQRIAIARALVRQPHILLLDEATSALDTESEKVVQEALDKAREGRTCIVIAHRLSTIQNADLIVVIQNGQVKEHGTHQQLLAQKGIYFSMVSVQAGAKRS

Compound: C[C@@H](O)[C@H](CO)NC(=O)[C@@H]1CSSC[C@H](NC(=O)[C@H](N)Cc2ccccc2)C(=O)N[C@@H](Cc2ccccc2)C(=O)N[C@H](Cc2c[nH]c3ccccc23)C(=O)N[C@@H](CCCCN)C(=O)N[C@@H]([C@@H](C)O)C(=O)N1 (H-[dF]CF[dW]KTC-{Threoninol(2S,3R)}; disulfide 2-7)
- Activity: substrate [+]
